# Target: human recombinant DGK ξ (Homo sapiens (Human), UniProt Q13574)
# Experiment: Evaluation of DGK ξ inhibitory effect (ADP-Glo Kinase Assay)
# Format: biochemical
# Procedure: Test Example 1: Evaluation of DGK ξ Inhibitory Effect
# The inhibitory effect of a test compound on human recombinant DGK ξ (Carna Biosciences, Inc., 12-410-20N) was examined by the following method in which detection is performed with ADP-Glo™ Kinase Assay (Promega Corporation).
# To a 384-well plate (Greiner Bio-One Co., Ltd.), 3 μL of a […] dissolved in an assay buffer (40 mM Tris-HCl pH 7.5, 10 mM MgCl2, 1 mM dithiothreitol (DTT) and 0.1 mg/mL bovine serum albumin (BSA)) (90 ng/mL) was added, and 3 μL of the test compound diluted with the same assay buffer was added so that an intended final concentration was obtained. The mixture was left standing at room temperature for 15 minutes, 3 μL of a substrate (150 μM 1-oleoyl-2-acetyl-sn-glycerol (Sigma-Aldrich Co. LLC.), 480 μM phosphatidylserine (Avanti Polar Lipids, Inc.) and 150 μM UltraPure-ATP (attached to ADP-Glo)) was then added, and the mixture was left standing at room temperature for 30 minutes to react. Thereafter, 3 μL of an ADP-Glo Reagent was added, and the mixture was left standing at room temperature for 40 minutes to stop the enzyme reaction. Further, 6 μL of a Kinase-Detection Reagent was added, the mixture was left standing at room temperature for 30 minutes, and the luminescence was then measured using ARVO X3 (PerkinElmer, Inc.). The half maximal inhibitory concentration (IC50) was calculated by Sigmoid-Emax model non-linear regression analysis, where the signal value in solvent treatment was set to 0% inhibition and the signal value without addition of the DGK ξ enzyme was set to 100% inhibition. […] In the table, Ex represents the number of each Example described below. Also, in the table, compound C (cpd. C) represents the test compound of the Example 199 described in the international publication WO 2008/054702.
# Chain of human recombinant DGK ξ (Q13574 whole entry): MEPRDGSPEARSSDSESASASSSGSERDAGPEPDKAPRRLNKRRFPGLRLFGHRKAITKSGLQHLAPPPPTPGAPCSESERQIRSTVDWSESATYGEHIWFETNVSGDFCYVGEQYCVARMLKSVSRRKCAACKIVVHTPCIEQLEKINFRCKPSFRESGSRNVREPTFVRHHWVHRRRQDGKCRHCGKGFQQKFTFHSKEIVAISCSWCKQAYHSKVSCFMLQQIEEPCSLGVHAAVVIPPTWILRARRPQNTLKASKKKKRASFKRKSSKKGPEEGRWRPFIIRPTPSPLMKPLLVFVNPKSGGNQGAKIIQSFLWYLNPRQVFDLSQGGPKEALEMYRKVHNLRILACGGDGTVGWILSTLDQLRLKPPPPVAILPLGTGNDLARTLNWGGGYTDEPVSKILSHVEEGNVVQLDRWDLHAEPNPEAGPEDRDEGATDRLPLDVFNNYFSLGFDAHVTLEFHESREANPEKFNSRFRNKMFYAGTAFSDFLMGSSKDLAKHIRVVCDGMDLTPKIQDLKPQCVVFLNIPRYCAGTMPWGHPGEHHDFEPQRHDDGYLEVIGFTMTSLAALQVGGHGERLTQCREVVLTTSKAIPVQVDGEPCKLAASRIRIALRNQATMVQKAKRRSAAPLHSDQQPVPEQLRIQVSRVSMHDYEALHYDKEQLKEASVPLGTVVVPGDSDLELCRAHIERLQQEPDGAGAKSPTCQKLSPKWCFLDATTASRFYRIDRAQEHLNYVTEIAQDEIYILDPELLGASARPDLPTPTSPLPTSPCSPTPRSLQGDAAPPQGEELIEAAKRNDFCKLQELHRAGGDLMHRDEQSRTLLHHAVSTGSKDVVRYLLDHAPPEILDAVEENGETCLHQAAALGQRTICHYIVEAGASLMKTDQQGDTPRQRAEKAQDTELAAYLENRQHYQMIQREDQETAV
structure (smiles),measurement,value
NC[C@H]1CCCN1c1c(NC(=O)c2csc(-c3ccnnc3)n2)ccc(Oc2ccccc2F)c1C(F)(F)F [Example 19],IC50,15 nM
CN[C@@H]1CCN2CCN(c3c(NC(=O)c4csc(-c5ccnnc5)n4)ccc(Oc4ccccc4)c3C(F)(F)F)C[C@@H]12 [Example 73],IC50,0.7 nM
NC[C@@H]1CN(c2c(NC(=O)c3csc(-c4ccnnc4)n3)ccc(Oc3ccccc3)c2C(F)(F)F)CCO1 [Example 25],IC50,42 nM
"CNCC1CCCN(c2c(NC(=O)c3csc(-c4ccnnc4)n3)ccc(Oc3ccccc3)c2C(F)(F)F)C1 (stereo not drawn) [Example 64, N-[2-{3-[(methylamino)methyl]piperidin-1-yl}-4-phenoxy-3-(trifluoromethyl)phenyl]-2-(pyridazin-4-yl)-1,3-thiazole-4-carboxamide]",IC50,30 nM
Cn1cc(Oc2ccc(NC(=O)c3csc(-c4ccnnc4)n3)c(N3CCC[C@@H](CN)C3)c2C(F)(F)F)cn1 [Example 16],IC50,41 nM
COCCNC[C@@H]1CCCN(c2c(NC(=O)c3csc(-c4ccnnc4)n3)ccc(Oc3cccc(F)c3)c2C(F)(F)F)C1 [Example 53],IC50,27 nM
Cc1c(OC2CC2)ccc(NC(=O)c2csc(-c3ccnnc3)n2)c1N1CCC[C@@H](CN)C1 [Example 71],IC50,44 nM
"CNC[C@@H]1CCCN(c2c(NC(=O)c3csc(-c4ccnnc4)n3)ccc(Oc3ccccc3)c2C(F)(F)F)C1 [Example 49, N-[2-{(3S)-3-[(methylamino)methyl]piperidin-1-yl}-4-phenoxy-3-(trifluoromethyl)phenyl]-2-(pyridazin-4-yl)-1,3-thiazole-4-carboxamide]",IC50,10 nM
NC[C@@H]1CCCN(c2c(NC(=O)c3csc(-c4ccnnc4)n3)ccc(Oc3ccc(F)cc3)c2C(F)(F)F)C1 [Example 41],IC50,11 nM
CNCC[C@H]1CCCN1c1c(NC(=O)c2csc(-c3ccnnc3)n2)ccc(Oc2ccccc2)c1C(F)(F)F [Example 46],IC50,40 nM
Cn1ccc(Oc2ccc(NC(=O)c3csc(-c4ccnnc4)n3)c(N3CCC[C@@H](CN)C3)c2C(F)(F)F)n1 [Example 17],IC50,13 nM
N[C@H]1CCN2CCN(c3c(NC(=O)c4csc(-c5ccnnc5)n4)ccc(Oc4ccccc4)c3C(F)(F)F)C[C@@H]12 [Example 74],IC50,41 nM
NC[C@@H]1CCCN(c2c(NC(=O)c3csc(-c4ccnnc4)n3)ccc(Oc3cccc(Cl)c3)c2C(F)(F)F)C1 [Example 40],IC50,50 nM
"O=C(Nc1ccc(Oc2ccccc2F)c(C(F)(F)F)c1N1CCC[C@@H]1CNC1COC1)c1csc(-c2ccnnc2)n1 [Example 63, N-[4-(2-fluorophenoxy)-2-[(2R)-2-{[(oxetan-3-yl)amino]methyl}pyrrolidin-1-yl]-3-(trifluoromethyl)phenyl]-2-(pyridazin-4-yl)-1,3-thiazole-4-carboxamide]",IC50,429 nM
CNC[C@H]1CN(c2c(NC(=O)c3csc(-c4ccnnc4)n3)ccc(Oc3ccccc3)c2C(F)(F)F)CCO1 [Example 29],IC50,426 nM
NC[C@@H]1CCCN(c2c(NC(=O)c3csc(-c4ccnnc4)n3)ccc(Nc3ccccc3)c2C(F)(F)F)C1 [Example 18],IC50,19 nM
COCCN1CCC2(CCCN(c3c(NC(=O)c4csc(-c5ccnnc5)n4)ccc(Oc4ccccc4)c3C(F)(F)F)C2)CC1 [Example 61],IC50,3 nM
CNC[C@@H]1CN(c2c(NC(=O)c3csc(-c4ccnnc4)n3)ccc(Oc3ccccc3)c2C(F)(F)F)CCO1 [Example 26],IC50,46 nM
O=C(Nc1ccc(Oc2ccccc2)c(C(F)(F)F)c1C1=CCN(Cc2cc[nH]n2)CC1)c1csc(-c2ccnnc2)n1 [Example 2],IC50,53 nM
CN(C)[C@H]1CCN2CCN(c3c(NC(=O)c4csc(-c5ccnnc5)n4)ccc(Oc4ccccc4)c3C(F)(F)F)C[C@H]12 [Example 81],IC50,152 nM
N[C@@H]1CCN2CCN(c3c(NC(=O)c4csc(-c5ccnnc5)n4)ccc(Oc4ccccc4)c3C(F)(F)F)C[C@H]12 [Example 79],IC50,47 nM
NC[C@@H]1CCCN(c2c(NC(=O)c3csc(-c4ccnnc4)n3)ccc(Oc3ccccc3)c2C2CC2)C1 [Example 67],IC50,12 nM
NC[C@H]1CCCN(c2c(NC(=O)c3csc(-c4ccnnc4)n3)ccc(Oc3ccccc3)c2C(F)(F)F)C1 [Example 32],IC50,31 nM
NCC[C@@H]1CCCN(c2c(NC(=O)c3csc(-c4ccnnc4)n3)ccc(Oc3ccccc3)c2C(F)(F)F)C1 [Example 7],IC50,110 nM
CN[C@@H]1CCN2CCN(c3c(NC(=O)c4csc(-c5ccnnc5)n4)ccc(OC4CC4)c3C(F)(F)F)C[C@@H]12 [Example 77],IC50,2 nM
NC[C@@H]1CCCN(c2c(NC(=O)c3csc(-c4ccnnc4)n3)cc(F)c(Oc3ccccc3)c2F)C1 [Example 24],IC50,11 nM
CNC[C@@H]1CCCN(c2c(NC(=O)c3csc(-c4ccnnc4)n3)ccc(Oc3ccccc3Cl)c2C(F)(F)F)C1 [Example 36],IC50,13 nM

# From patent US12227517B2, “Pyridazinyl-thiazolecarboxamide compound” (Astellas Pharma Inc., priority 2019, dated 2025)
